Experimental data taken from the NIST ThermoML archive (doi:10.1016/j.fluid.2006.10.025).
Where “and” joins values, the source holds several entries; their conditions need not be identical. Identical values can stand only once. Numbers after ± are expanded uncertainties.

Conditions: 101.33 kPa, Liquid

OCC(F)(F)C(F)(F)C(F)(F)C(F)(F)C(F)(F)C(F)F [1,1,7-trihydrododecafluoroheptan-1-ol]
Conditions	mass density
293.15 K	1750.1 ± 7.8 kg/m3 and 1750.2 ± 7.8 kg/m3
303.15 K	1732.7 ± 7.6 kg/m3
313.15 K	1715 ± 7.4 kg/m3
323.15 K	1696.9 ± 7.3 kg/m3
333.15 K	1678.5 ± 7.1 kg/m3
343.15 K	1659.7 ± 6.9 kg/m3
